# Data: article PMC10584170, “Machine learning-based phenotypic imaging to characterise the targetable biology of Plasmodium falciparum male gametocytes for the development of transmission-blocking antimalarials” (PLOS Pathogens, 2023)
# Read-outs that look alike come from different tables or passages of the source.
# How the values were obtained:
# [1] = tested on: P. falciparum female gametocytes; assay: P. falciparum Dual Gamete Formation Assay (PfDGFA), female readout (Pfs25-positive female gametes); assay type: cell-based, Plasmodium falciparum NF54; details: for IC50: PfDGFA, 24 h incubation with gametocytes before induction, female gamete readout, read-out: Female IC50
# Method: (§1) P. falciparum NF54 (originally isolated from an imported malaria case in the Netherlands in the 1980s; BEI Resources, cat. No. MRA-1000) strain asexual parasites were maintained between 0.3–5% parasitaemia by regular passage in complete culture medium (RPMI supplemented with 25 mM HEPES, 50 μg ml^−1 hypoxanthine, 4.8 g l^−1 NaHCO3, 2mM L-glutamine, 5% pooled type AB serum, 0.5% Albumax II (Gibco)) at 4% haematocrit in washed whole blood (National Blood and Transfusion Service or Centro de Transfusiones de la Comunidad de Madrid CTCM) under a 1% O2/3% CO2/96% N2 environment. Gametocytes were induced by seeding culture flasks at 2% parasitaemia/4% haematocrit and subjecting them to daily medium changes for 14 days whilst maintaining a temperature of 37°C at all times. On Day 14, the maturity of gametocytes was assessed by quantifying male gametogenesis (exflagellation). A 20 μl sample of gametocyte culture was mixed with equal volume of ookinete medium (complete culture medium supplemented with 0.1 μM xanthurenic acid) at room temperature and transferred to a haemocytometer. After 20 min at room temperature, exflagellation was accurately quantified as described in Delves et al. 2016 [17].
# (§2) The Pf DGFA was performed as described in Delves et al. 2016 [17]. […] Plates were then incubated for 24 h at 37°C in a humidified box under a 1% O2/3% CO2/96% N2 gas mix. Gametogenesis was triggered by addition of 10 μl per well of ookinete medium + 0.27 μg ml^-1 Cy3-labelled anti-Pfs25 antibody. Plates were incubated on a metal block at 4°C for 4 min to ensure even cooling, then 28°C for a further 4 min. Exflagellation was recorded by capturing 10 frames over 1 s under brightfield illumination using a x4 objective with a 1.5x zoom (effectively x6) attached to an automated Nikon Ti fluorescence microscope. After recording exflagellation, plates were incubated for a further 24 h in the dark at 28°C to ensure maximal expression of Pfs25 by female gametes. The plates were then returned to the microscope and female gametes imaged at x6 using fluorescence microscopy.
# (§3) Exflagellation centres and female gametes were quantified using custom image analysis pipelines developed within ICY Bioimage Analysis (https://icy.bioimageanalysis.org/).
# [2] = tested on: P. falciparum male gametocytes; assay: P. falciparum Dual Gamete Formation Assay (PfDGFA), male readout (exflagellation); assay type: cell-based, Plasmodium falciparum NF54; details: for IC50: PfDGFA, 24 h incubation with gametocytes before induction, exflagellation readout, read-out: Male IC50
# Method: as §1, §2, §3
# [3] = PfDGFA at 2µM, 24h preincubation with gametocytes prior to induction of gametogenesis, replicate R1
# [4] = PfDGFA at 2µM, 24h preincubation with gametocytes prior to induction of gametogenesis, replicate R3
# [5] = PfDGFA at 2µM, 24h preincubation with gametocytes prior to induction of gametogenesis, replicate R4
# [6] = PfDGFA at 2µM, 24h preincubation, average of replicates
# [7] = PfDGFA at 2µM, 24h preincubation with gametocytes, average of replicates
# [8] = PfDGFA at 2µM, 24h preincubation with gametocytes, replicate R1
# [9] = PfDGFA at 2µM, 24h preincubation with gametocytes, replicate R3
# [10] = PfDGFA at 2µM, 24h preincubation with gametocytes, replicate R4
# [11] = 2µM, 24h preincubation with gametocytes, average of replicates
# [12] = 2µM, 24h preincubation with gametocytes, replicate R1
# [13] = 2µM, 24h preincubation with gametocytes, replicate R3
# [14] = 2µM, 24h preincubation with gametocytes, replicate R4
# [15] = 2µM, 24h preincubation with gametocytes prior to induction of gametogenesis, average of replicates
# [16] = 2µM, 24h preincubation with gametocytes prior to induction of gametogenesis, replicate R1
# [17] = 2µM, 24h preincubation with gametocytes prior to induction of gametogenesis, replicate R3
# [18] = 2µM, 24h preincubation with gametocytes prior to induction of gametogenesis, replicate R4
smiles,measurement,setting,value
COc1ccc(N2C(N)=NC(N)=NC2(C)C)cc1.Cl [TCMDC-124269],% inhibition female (individual replicates) R1,[1]; [3],13.5%
same,% inhibition female (individual replicates) R3,[1]; [4],-15.3%
same,% inhibition female (individual replicates) R4,[1]; [5],10.3%
same,Average inhibition female (%),[1]; [6],1.7%
same,% inhibition male (individual replicates) R1,[2]; [3],22.5%
same,% inhibition male (individual replicates) R3,[2]; [4],4.0%
same,% inhibition male (individual replicates) R4,[2]; [5],-9.1%
same,Average inhibition male (%),[2]; [6],11.6%
CC(=NNC(=S)NCCc1ccccc1)c1ccccn1 [TCMDC-124270],Average inhibition female (%),[1]; [7],36.2%
same,% inhibition female (individual replicates) R1,[1]; [8],25.2%
same,% inhibition female (individual replicates) R3,[1]; [9],20.9%
same,% inhibition female (individual replicates) R4,[1]; [10],55.8%
same,IC50,[1],530 nM
same,HitlevelF,"[1]; number of replicates with >50% inhibition in the female readout, 2µM",1
same,Average inhibition male (%),[2]; [7],63.1%
same,% inhibition male (individual replicates) R1,[2]; [8],70.1%
same,% inhibition male (individual replicates) R3,[2]; [9],69.5%
same,% inhibition male (individual replicates) R4,[2]; [10],18.9%
same,IC50,[2],640 nM
same,HitlevelM,"[2]; number of replicates with >50% inhibition in the male readout, 2µM",3
CC(C)(c1ccccc1)c1ccc(O)c(CN2CCOCC2)c1 [TCMDC-124276],% inhibition female (individual replicates) R1,[1]; [3],0.5%
same,% inhibition female (individual replicates) R3,[1]; [4],8.1%
same,% inhibition female (individual replicates) R4,[1]; [5],-2.3%
same,Average inhibition female (%),[1]; [6],-2.0%
same,% inhibition male (individual replicates) R1,[2]; [3],1.1%
same,% inhibition male (individual replicates) R4,[2]; [5],-1.8%
same,Average inhibition male (%),[2]; [6],10.2%
CC(=NNC(=S)Nc1ccccc1Cl)c1ccccn1 [TCMDC-124278],Average inhibition female (%),[1]; [11],61.5%
same,% inhibition female (individual replicates) R1,[1]; [12],40.0%
same,% inhibition female (individual replicates) R3,[1]; [13],55.6%
same,% inhibition female (individual replicates) R4,[1]; [14],74.7%
same,IC50,[1],300 nM
same,Average inhibition male (%),[2]; [11],101.3%
same,% inhibition male (individual replicates) R1,[2]; [12],101.8%
same,% inhibition male (individual replicates) R3,[2]; [13],99.8%
same,% inhibition male (individual replicates) R4,[2]; [14],103.6%
same,IC50,[2],110 nM
CCCCOc1ccc(N2C(N)=NC(N)=NC2(C)C)cc1.Cl [TCMDC-124279],% inhibition female (individual replicates) R1,[1]; [3],2.1%
same,% inhibition female (individual replicates) R3,[1]; [4],-37.2%
same,% inhibition female (individual replicates) R4,[1]; [5],21.1%
same,Average inhibition female (%),[1]; [6],-3.8%
same,% inhibition male (individual replicates) R1,[2]; [3],-7.3%
same,% inhibition male (individual replicates) R3,[2]; [4],-37.1%
same,% inhibition male (individual replicates) R4,[2]; [5],-28.5%
same,Average inhibition male (%),[2]; [6],-17.0%
CCOC(=O)c1cc(C(=O)OC)c2ccccn12 [TCMDC-124299],% inhibition female (individual replicates) R1,[1]; [3],6.3%
same,% inhibition female (individual replicates) R3,[1]; [4],-21.8%
same,% inhibition female (individual replicates) R4,[1]; [5],0.07%
same,Average inhibition female (%),[1]; [6],-2.7%
same,% inhibition male (individual replicates) R1,[2]; [3],15.7%
same,% inhibition male (individual replicates) R3,[2]; [4],-23.4%
same,% inhibition male (individual replicates) R4,[2]; [5],-23.1%
same,Average inhibition male (%),[2]; [6],-9.0%
[O-][S+]1c2ccccc2Sc2ccccc21 [TCMDC-124300],% inhibition female (individual replicates) R1,[1]; [3],9.4%
same,% inhibition female (individual replicates) R3,[1]; [4],-8.0%
same,% inhibition female (individual replicates) R4,[1]; [5],-1.0%
same,Average inhibition female (%),[1]; [6],-3.0%
same,% inhibition male (individual replicates) R1,[2]; [3],13.3%
same,% inhibition male (individual replicates) R3,[2]; [4],4.0%
same,% inhibition male (individual replicates) R4,[2]; [5],-37.1%
same,Average inhibition male (%),[2]; [6],-9.5%
CCCCNS(=O)(=O)c1ccc(NC(=O)c2cc([N+](=O)[O-])ccc2Cl)cc1 [TCMDC-124345],Selectivity ratio F,[1]; HepG2 Tox50 versus female IC50,13.22
same,inhibition at 2 µM,"[1]; Plasmodium falciparum, 2µM, 24h preincubation with gametocytes, average of replicates, read-out: Average inhibition female (%)",20%
same,inhibition at 2 µM,"[1]; Plasmodium falciparum, 2µM, 24h preincubation with gametocytes, replicate R1, read-out: % inhibition female (individual replicates) R1",27.9%
same,inhibition at 2 µM,"[1]; Plasmodium falciparum, 2µM, 24h preincubation with gametocytes, replicate R2, read-out: % inhibition female (individual replicates) R2",30.3%
same,inhibition at 2 µM,"[1]; Plasmodium falciparum, 2µM, 24h preincubation with gametocytes, replicate R3, read-out: % inhibition female (individual replicates) R3",6.6%
same,inhibition at 2 µM,"[1]; Plasmodium falciparum, 2µM, 24h preincubation with gametocytes, replicate R4, read-out: % inhibition female (individual replicates) R4",15%
same,IC50,[1]; Plasmodium falciparum,7560 nM
same,Selectivity Ratio M,[2]; HepG2 Tox50 versus male IC50,267.48
same,inhibition at 2 µM,"[2]; Plasmodium falciparum, 2µM, 24h preincubation with gametocytes, average of replicates, read-out: Average inhibition male (%)",100%
same,inhibition at 2 µM,"[2]; Plasmodium falciparum, 2µM, 24h preincubation with gametocytes, replicate R1, read-out: % inhibition male (individual replicates) R1",101%
same,inhibition at 2 µM,"[2]; Plasmodium falciparum, 2µM, 24h preincubation with gametocytes, replicate R2, read-out: % inhibition male (individual replicates) R2",102%
same,inhibition at 2 µM,"[2]; Plasmodium falciparum, 2µM, 24h preincubation with gametocytes, replicate R3, read-out: % inhibition male (individual replicates) R3",100%
same,inhibition at 2 µM,"[2]; Plasmodium falciparum, 2µM, 24h preincubation with gametocytes, replicate R4, read-out: % inhibition male (individual replicates) R4",98.2%
same,IC50,[2]; Plasmodium falciparum,370 nM
CC(=O)Nc1ccc(Nc2c3ccccc3nc3ccccc23)cc1 [TCMDC-124356],Average inhibition female (%),[1]; [15],14.4%
same,% inhibition female (individual replicates) R1,[1]; [16],47.3%
same,% inhibition female (individual replicates) R3,[1]; [17],8.8%
same,% inhibition female (individual replicates) R4,[1]; [18],12.0%
same,HitlevelF,"[1]; 2µM, 24h preincubation, hits selected on >50% inhibition in the female readout across replicates",0
same,Average inhibition male (%),[2]; [15],30.9%
same,% inhibition male (individual replicates) R1,[2]; [16],50.9%
same,% inhibition male (individual replicates) R4,[2]; [18],-15.9%
same,HitlevelM,"[2]; 2µM, 24h preincubation, hits selected on >50% inhibition in the male readout across replicates",2
same,Activity,"[2]; PfDGFA at 2µM, 24h preincubation, hit = >50% inhibition in male or female readout in at least 3 replicates, 0 = no class assigned",0
CC(C)(C)Nc1cc(C2CC2)nc(-c2ccccn2)n1 [TCMDC-124453],Average inhibition female (%),[1]; [15],32.5%
same,% inhibition female (individual replicates) R1,[1]; [16],36.3%
same,% inhibition female (individual replicates) R3,[1]; [17],27.2%
same,% inhibition female (individual replicates) R4,[1]; [18],34.1%
same,HitlevelF,"[1]; 2µM, 24h preincubation, number of replicates with >50% inhibition in the female readout",0
same,Average inhibition male (%),[2]; [15],8.7%
same,% inhibition male (individual replicates) R1,[2]; [16],15.7%
same,% inhibition male (individual replicates) R3,[2]; [17],8.7%
same,% inhibition male (individual replicates) R4,[2]; [18],17.6%
same,HitlevelM,"[2]; 2µM, 24h preincubation, number of replicates with >50% inhibition in the male readout",0
Cc1ccc(-c2nnc3c4ccccc4c(C)nn23)cc1S(=O)(=O)N1CCN(CCO)CC1 [TCMDC-124482],% inhibition female (individual replicates) R1,[1]; [3],11.9%
same,% inhibition female (individual replicates) R3,[1]; [4],-40.2%
same,% inhibition female (individual replicates) R4,[1]; [5],14.7%
same,Average inhibition female (%),[1]; [6],-3.6%
same,% inhibition male (individual replicates) R1,[2]; [3],14.3%
same,% inhibition male (individual replicates) R3,[2]; [4],-2.0%
same,% inhibition male (individual replicates) R4,[2]; [5],34.9%
same,Average inhibition male (%),[2]; [6],14.9%
